# Test results taken from patent publication US8324199B2, “Pyridazine derivatives as factor xia inhibitors” (Bristol-Myers Squibb Company, priority 2008, dated 2012).
# Target: T1, purified human Factor XIa (Homo sapiens, UniProt P03951)
# T1 construct: purchased Haematologic Technologies
# Experiment: Factor XIa assay (chromogenic substrate hydrolysis, Ki)
# Format: biochemical
# Details: purified human Factor XIa 75-200 pM, substrate S-2366, 50 mM HEPES pH 7.4
# Procedure: The effectiveness of compounds of the present invention as inhibitors of the coagulation factors XIa, VIIa, IXa, Xa, XIIa, plasma kallikrein or thrombin, can be determined using a relevant purified serine protease, respectively, and an appropriate synthetic substrate. The rate of hydrolysis of the chromogenic or fluorogenic substrate by the relevant serine protease was measured both in the absence and presence of compounds of the present invention. […] A decrease in the rate of absorbance or fluorescence change in the presence of inhibitor is indicative of enzyme inhibition. Such methods are known to one skilled in the art. The results of this assay are expressed as the inhibitory constant, Ki.
# Factor XIa determinations were made in 50 mM HEPES buffer at pH 7.4 containing 145 mM NaCl, 5 mM KCl, and 0.1% PEG 8000 (polyethylene glycol; JT Baker or Fisher Scientific). Determinations were made using purified human Factor XIa at a final concentration of 75-200 pM (Haematologic Technologies) and the synthetic substrate S-2366 (pyroGlu-Pro-Arg-pNA; Chromogenix or AnaSpec) at a concentration of 0.0002-0.001 M.
# The Michaelis constant, Km, for substrate hydrolysis by each protease, was determined at 25° C. using the method of Lineweaver and Burk. Values of Ki were determined by allowing the protease to react with the substrate in the presence of the inhibitor. Reactions were allowed to go for periods of 20-180 minutes (depending on the protease) and the velocities (rate of absorbance or fluorescence change versus time) were measured. The following relationships were used to calculate Ki values: (vo−vs)/vs=I/(Ki(1+S/Km)) for a competitive inhibitor with one binding site; or vs/vo=A+((B−A)/1+((IC50/(I)^n))); and Ki=IC50/(1+S/Km) for a competitive inhibitor where: […]
# T1 sequence (P03951 388-625 limits assumed): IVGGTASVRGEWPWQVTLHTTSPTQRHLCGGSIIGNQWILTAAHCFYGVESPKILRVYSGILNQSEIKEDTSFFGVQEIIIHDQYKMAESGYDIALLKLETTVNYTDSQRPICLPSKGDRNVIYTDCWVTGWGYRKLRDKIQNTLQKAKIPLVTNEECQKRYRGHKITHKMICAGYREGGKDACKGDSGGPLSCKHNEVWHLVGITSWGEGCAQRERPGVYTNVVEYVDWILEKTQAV
# T1 sequence (P03951 19-387 partner limits assumed): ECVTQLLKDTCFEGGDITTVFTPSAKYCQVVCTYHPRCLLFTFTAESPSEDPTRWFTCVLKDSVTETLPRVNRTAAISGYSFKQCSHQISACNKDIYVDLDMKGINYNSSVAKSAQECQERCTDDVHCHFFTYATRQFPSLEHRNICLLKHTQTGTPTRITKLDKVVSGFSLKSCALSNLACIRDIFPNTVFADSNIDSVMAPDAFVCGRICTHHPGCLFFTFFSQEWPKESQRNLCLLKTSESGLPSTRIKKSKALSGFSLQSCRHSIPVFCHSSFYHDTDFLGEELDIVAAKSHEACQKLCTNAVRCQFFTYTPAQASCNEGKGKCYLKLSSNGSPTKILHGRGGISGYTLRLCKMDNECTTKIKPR
row,Structure (SMILES),Ki [nM]
1,"O=C(O)CCOC(=O)Nc1ccc(-c2cnnc([C@H](Cc3ccccc3)NC(=O)CCc3ccccc3-n3cnnn3)c2)cc1 [Example 60, (S)-3-(4-(6-(1-(3-(2-(1H-Tetrazol-1-yl)phenyl)propanamido)-2-phenylethyl)pyridazin-4-yl)phenylcarbamoyloxy)propanoic acid]",3370
2,"COC(=O)Nc1ccc(-c2cc([C@H](Cc3ccccc3)NC(=O)/C=C/c3cc(Cl)ccc3-n3cnnn3)n[nH]c2=O)cc1F [Example 61, (S,E)-Methyl 4-(6-(1-(3-(5-chloro-2-(1H-tetrazol-1-yl)phenyl)acrylamido)-2-phenylethyl)-3-oxo-2,3-dihydropyridazin-4-yl)-2-fluorophenylcarbamate]",1680
3,"NC1CC1C(=O)Nc1ccc(-c2cnnc([C@H](Cc3ccccc3)NC(=O)/C=C/c3cc(Cl)ccc3-n3cnnn3)c2)cc1 (stereo partly drawn) [Example 80, 2-Amino-N-(4-(6-((S)-1-((E)-3-(5-chloro-2-(1H-tetrazol-1-yl)phenyl)acrylamido)-2-phenylethyl)pyridazin-4-yl)phenyl)cyclopropanecarboxamide]",3330
4,"O=C(/C=C/c1cc(Cl)ccc1-n1cnnn1)N[C@@H](Cc1ccccc1)c1cc(-c2ccc(NC(=O)OC3CNC3)cc2)cnn1 [Example 89, (S,E)-Azetidin-3-yl 4-(6-(1-(3-(5-chloro-2-(1H-tetrazol-1-yl)phenyl)acrylamido)-2-phenylethyl)pyridazin-4-yl)phenylcarbamate]",141
5,"COC(=O)Nc1ccc(-c2cc([C@H](CCSC)NC(=O)/C=C/c3cc(Cl)ccc3-n3cnnn3)nnc2Cl)cc1 [Example 90, (S,E)-Methyl 4-(3-chloro-6-(1-(3-(5-chloro-2-(1H-tetrazol-1-yl)phenyl)acrylamido)-3-(methylthio)propyl)pyridazin-4-yl)phenylcarbamate]",67
6,"COC(=O)Nc1ccc(-c2cc([C@H](CC3CCCN(C(=O)C4CC4)C3)NC(=O)/C=C/c3cc(Cl)ccc3-n3cnnn3)nnc2Cl)cc1 (stereo partly drawn) [Example 112, Methyl 4-(3-chloro-6-((1S)-1-((E)-3-(5-chloro-2-(1 H-tetrazol-1-yl)phenyl)acrylamido)-2-(1-(cyclopropanecarbonyl)piperidin-3-yl)ethyl)pyridazin-4-yl)phenylcarbamate]",6360

# Molecules with a lower Ki, results first:
row,Ki [nM],Structure (SMILES)
1,9.4,"CCn1ccc(C[C@H](NC(=O)/C=C/c2cc(Cl)ccc2-n2cnnn2)c2cc(-c3ccc(NC(=O)OC)cc3)c(Cl)nn2)n1 [Example 71, (S,E)-Methyl 4-(3-chloro-6-(1-(3-(5-chloro-2-(1H-tetrazol-1-yl)phenyl)acrylamido)-2-(1-ethyl-1H-pyrazol-3-yl)ethyl)pyridazin-4-yl)phenylcarbamate]"
2,0.84,"O=C(/C=C/c1cc(Cl)ccc1-n1cnnn1)N[C@@H](Cc1ccccc1)c1cc(-c2ccc3[nH]c(=O)cc(O)c3c2)cnn1 [Example 78, (S,E)-3-(5-Chloro-2-(1H-tetrazol-1-yl)phenyl)-N-(1-(5-(4-hydroxy-2-oxo-1,2-dihydroquinolin-6-yl)pyridazin-3-yl)-2-phenylethyl)acrylamide]"
3,27,"COC(=O)Nc1ccc(-c2cc([C@H](Cc3ccncc3)NC(=O)/C=C/c3cc(Cl)ccc3-n3cnnn3)nnc2Cl)cc1 [Example 94, (S,E)-Methyl 4-(3-chloro-6-(1-(3-(5-chloro-2-(1H-tetrazol-1-yl)phenyl)acrylamido)-2-(pyridin-4-yl)ethyl)pyridazin-4-yl)phenylcarbamate]"
4,17,"COC(=O)Nc1ccc(-c2cc([C@H](Cc3cc4n(n3)CCCO4)NC(=O)/C=C/c3cc(Cl)ccc3-n3cnnn3)nnc2Cl)cc1 [Example 97, (S,E)-Methyl 4-(3-chloro-6-(1-(3-(5-chloro-2-(1H-tetrazol-1-yl)phenyl)acrylamido)-2-(6,7-dihydro-5H-pyrazolo[5,1-b][1,3]oxazin-2-yl)ethyl)pyridazin-4-yl)phenylcarbamate]"
